# Patent publication US7314877B2, “Benzofuran derivative” (Kowa Co., Ltd., priority 2003, dated 2008)
# pIC50: −log10 of the molar value.
# Tests used:
# [1] = Test on absorption after oral administration in mouse; format: in vivo; settings: male ICR mouse, 10 mg/kg oral, suspension in 0.5% HPMC, plasma at 0.25, 0.5, 1 and 4 hours, HPLC; FIG. 1
# Experimental: Test on Absorption after Oral Administration in Mouse Each of the test compounds (Examples 7, 10, and 13) was suspended in 0.5% HPMC in a mortar. The suspension was orally administered to each male ICR mouse (6 weeks old) in an amount of 10 mg/kg. At each time of 0.25, 0.5, 1, and 4 hours after oral administration, a blood sample was collected and centrifuged, whereby a plasma sample was prepared. The level of the test compound in the plasma sample was determined through HPLC.
# TNF-α production = TNF-α production inhibitory effect in LPS-stimulated RAW264.7 cells (ELISA); format: cell-based; settings: Mus musculus, 8 h, lipopolysaccharide 1 μg/mL, eight hours incubation, TNF-α in culture supernatant by ELISA
# Experimental: Method for Determining TNF-α Production Inhibitory Effect
# RAW264.7 cells were suspended in a DMEM medium supplemented with 10% fetal bovine serum (FBS), and the suspension was seeded in wells of a 24-well plate (5×10^5/mL/well). Each test compound (0 to 10 μM) was added to the wells, and the mixture was incubated in a CO2 incubator for 30 minutes. Subsequently, lipopolysaccharide was added to the mixture in an amount of 1 μg/mL, and incubation was further performed in a CO2 incubator for eight hours. Eight hours after the start of incubation, the culture supernatant was collected, and the amount of TNF-α contained in the culture broth was determined through ELISA. IC50 value was determined through comparison with the amount of produced TNF-α in the drug-free (blank) case.
Compound,absorption after oral administration (level of test compound in plasma) [1],melting point,pIC50 (TNF-α production)
"CN1CCN(Cc2cc(-c3ccc4c(c3)CCO4)nn(CCCc3ccccc3Cl)c2=O)CC1.Cl.Cl [Example 13, 2-[3-(2-chlorophenyl)propyl]-6-(2,3-dihydro-1-benzofuran-5-yl)-4-(4-methyl-1-piperazinyl)methyl-2H-pyridazin-3-one dihydrochloride]",good absorbability,–,–
"CN1CCN(Cc2cc(-c3ccc4c(c3)CCO4)nn(CCCc3ccccc3Cl)c2=O)CC1 [Example 12, 2-[3-(2-chlorophenyl)propyl]-6-(2,3-dihydro-1-benzofuran-5-yl)-4-(4-methyl-1-piperazinyl)methyl-2H-pyridazin-3-one]",–,–,5.66
"NCc1cc(-c2ccc3c(c2)CCO3)nn(Cc2ccccc2Cl)c1=O [Example 18, 4-aminomethyl-2-(2-chlorobenzyl)-6-(2,3-dihydro-1-benzofuran-5-yl)-2H-pyridazin-3-one]",–,120.1 to 122.8 °C,5.12
"CN1CCN(Cc2cc(-c3ccc4c(c3)CCO4)nn(CC3CC3)c2=O)CC1 [Example 1, 2-cyclopropylmethyl-6-(2,3-dihydro-1-benzofuran-5-yl)-4-(4-methyl-1-piperazinyl)methyl-2H-pyridazin-3-one]",–,128 to 130 °C,5.05
"CN(C)Cc1cc(-c2ccc3c(c2)CCO3)nn(CC2CC2)c1=O [Example 3, 2-cyclopropylmethyl-6-(2,3-dihydro-1-benzofuran-5-yl)-4-dimethylaminomethyl-2H-pyridazin-3-one]",–,109 to 110 °C,–

# Other lines, results leading:
absorption after oral administration (level of test compound in plasma) [1],melting point,pIC50 (TNF-α production),Compound
good absorbability,201 to 204 °C (dec.),–,"CN1CCN(Cc2cc(-c3ccc4c(c3)CCO4)nn(Cc3ccc(F)cc3)c2=O)CC1.Cl.Cl [Example 7, 2-(4-fluorobenzyl)-6-(2,3-dihydro-1-benzofuran-5-yl)-4-(4-methyl-1-piperazinyl)methyl-2H-pyridazin-3-one dihydrochloride]"
–,149 to 150 °C,–,"CN1CCN(Cc2cc(-c3ccc4c(c3)CCO4)nn(Cc3ccc(Cl)cc3)c2=O)CC1 [Example 8, 2-(4-chlorobenzyl)-6-(2,3-dihydro-1-benzofuran-5-yl)-4-(4-methyl-1-piperazinyl)methyl-2H-pyridazin-3-one]"
–,128 to 130 °C,–,"CN1CCN(Cc2cc(-c3ccc4occc4c3)nn(Cc3ccc(F)cc3)c2=O)CC1 [Example 11, 6-(1-benzofuran-5-yl)-2-(4-fluorobenzyl)-4-(4-methyl-1-piperazinyl)methyl-2H-pyridazin-3-one]"
–,141.4 to 142.1 °C,5.12,"CN1CCN(Cc2cc(-c3ccc4c(c3)CCO4)nn(Cc3ccccc3Cl)c2=O)CC1 [Example 17, 2-(2-chlorobenzyl)-6-(2,3-dihydro-1-benzofuran-5-yl)-4-(4-methyl-1-piperazinyl)methyl-2H-pyridazin-3-one]"
good absorbability,–,–,"CN1CCN(Cc2cc(-c3ccc4c(c3)CCO4)nn(CC=Cc3ccc(Cl)cc3)c2=O)CC1.Cl.Cl [Example 10, 2-(4-chlorocinnamyl)-6-(2,3-dihydro-1-benzofuran-5-yl)-4-(4-methyl-1-piperazinyl)methyl-2H-pyridazin-3-one dihydrochloride]"
–,179 to 180 °C,5.51,"CN1CCN(Cc2cc(-c3ccc4c(c3)CCO4)nn(Cc3ccc(F)cc3)c2=O)CC1 [Example 6, 2-(4-fluorobenzyl)-6-(2,3-dihydro-1-benzofuran-5-yl)-4-(4-methyl-1-piperazinyl)methyl-2H-pyridazin-3-one]"
–,112 to 113 °C,5.38,"CN1CCN(Cc2cc(-c3ccc4c(c3)CCO4)nn(CC=Cc3ccc(Cl)cc3)c2=O)CC1 [Example 9, 2-(4-chlorocinnamyl)-6-(2,3-dihydro-1-benzofuran-5-yl)-4-(4-methyl-1-piperazinyl)methyl-2H-pyridazin-3-one]"
